Source: patent US20210038681A1, “PHARMACEUTICAL COMPOSITION FOR TREATING VIRAL HEPATITIS C” (priority 2018, published 2021)
Read-outs that look alike come from different tables or passages of the source.

Key:
[1] = test system: HCV genotype 1a replicon cells; assay: Standard 3-day HCV replicon assay; assay type: cell-based; conditions: Hepatitis C virus, 72 h, 3 days, 5% fetal bovine serum
[2] = test system: HCV genotype 3a NS5A replicon cells; assay: Standard 3-day HCV replicon assay; assay type: cell-based; conditions: Hepatitis C virus, 72 h
[3] = test system: HCV genotype 7a NS5A replicon cells; assay: Standard 3-day HCV replicon assay; assay type: cell-based; conditions: Hepatitis C virus, 72 h
[4] = test system: bovine viral diarrhea virus (BVDV); assay: Virus-cell protection assay; assay type: cell-based; conditions: Bovine viral diarrhea virus isolates and strains, cell line BT
[5] = test system: human rhinovirus 16 (HRV-16); assay: Virus-cell protection assay; assay type: cell-based; conditions: Rhinovirus A, HRV16; Virus HRV-16, cell line HeLa
HCV 1a Y93H replicon = assay: microbe, parasite or virus in culture; assay type: cell-based
Description: (§1) The susceptibility degrees of WT replicons in the transient assay were similar to the values obtained from a cell assay using the stable HCV replicons.

[6] = test system: HCV 1b L31F + Y93H replicon; assay: microbe, parasite or virus in culture; assay type: cell-based
Description: as §1

HCV 1b L31V replicon = assay: microbe, parasite or virus in culture; assay type: cell-based
Description: as §1

HCV 2a NS5A WT replicon = assay: microbe, parasite or virus in culture; assay type: cell-based
Description: as §1

[7] = test system: HCV 2a NS5A Y93H replicon; assay: microbe, parasite or virus in culture; assay type: cell-based
Description: as §1

HCV 3a NS5A WT replicon = assay: microbe, parasite or virus in culture; assay type: cell-based
Description: as §1

[8] = test system: HCV 4a NS5A L30H replicon; assay: microbe, parasite or virus in culture; assay type: cell-based
Description: as §1

[9] = test system: HCV 4a NS5A P58L replicon; assay: microbe, parasite or virus in culture; assay type: cell-based
Description: as §1

[10] = test system: HCV 5a NS5A L31F replicon; assay: microbe, parasite or virus in culture; assay type: cell-based
Description: as §1

HCV 6a NS5A WT replicon = assay: microbe, parasite or virus in culture; assay type: cell-based
Description: as §1

[11] = test system: Wild-type HCV 1b replicon; assay type: cell-based; conditions: Hepatitis C virus, read-out: Mean EC50 (nM)
MDCK cells = conditions: MDCK cells, 10,000 nM
in vitro = conditions: cattle, BT cells (uninfected)
[12] = Hepatitis C virus, read-out: Mean EC50 (nM) ±SD

In the case of `COC(=O)N[C@H](C(=O)N1CCC[C@H]1c1ncc(-c2ccc3cc(-c4ccc5nc([C@@H]6CCCN6C(=O)[C@@H](NC(=O)OC)C(C)C)[nH]c5c4)ccc3c2)[nH]1)C(C)C` [ASC16, Ravidasvir], the EC50 ([1]; read-out: EC50) is reported as 0.09 ng/mL, the EC50 ([1]; read-out: EC50 (nM) Mean ± SD) is reported as 0.12 ± 0.01 nM and the EC90 ([1]; read-out: EC90) is reported as 0.24 ng/mL. For the same compound, the EC90 ([1]; read-out: EC90 (nM) Mean ± SD) was 0.32 ± 0.02 nM, the EC50 [2] was 0.95 ng/mL and the EC90 [2] was 2.8 ng/mL. The EC50 ([2]; read-out: EC50 (nM) Mean ± SD) was 1.14 ± 0.3 nM, the EC90 ([2]; read-out: EC90 (nM) Mean ± SD) was 3.35 ± 1.3 nM and the EC50 [3] was 0.06 ng/mL. For the same compound, the EC90 [3] was 0.17 ng/mL, the EC50 ([3]; read-out: EC50 (nM) Mean ± SD) was 0.07 ± 0.02 nM and the EC90 ([3]; read-out: EC90 (nM) Mean ± SD) was 0.2 ± 0.05 nM. For the same compound, the EC50 [4] was over 10000 nM, the EC50 [5] was over 3300 nM and the Fold change (HCV 1a Y93H replicon; HCV genotype 1a, variant Y93H, EC50 relative to WT) was 1,630. For the same compound, the EC50 (HCV 1a Y93H replicon; [12]) was 48 ± 1 nM, the Fold change ([6]; HCV genotype 1b, variant L31F + Y93H, EC50 relative to WT) was 2,541 and the EC50 [6, 12] was 28 ± 5.4 nM. The Fold change (HCV 1b L31V replicon; HCV genotype 1b, variant L31V, EC50 relative to WT) was 85, the EC50 (HCV 1b L31V replicon; [12]) was 0.9 ± 0.1 nM and the Fold change (HCV 2a NS5A WT replicon; HCV genotype 2a, WT, EC50 relative to WT) was 1. It also gave an EC50 (HCV 2a NS5A WT replicon; [12]) of 0.12 ± 0.06 nM, a Fold change ([7]; HCV genotype 2a, variant Y93H, EC50 relative to WT) of 816 and an EC50 [7, 12] of 96 ± 23 nM. For the same compound, the Fold change (HCV 3a NS5A WT replicon; HCV genotype 3a, WT, EC50 relative to WT) was 1, the EC50 (HCV 3a NS5A WT replicon; [12]) was 1.2 nM and the Fold change ([8]; HCV genotype 4a, variant L30H, EC50 relative to WT) was 887. The EC50 [8, 12] was 14 ± 0.8 nM, the Fold change ([9]; HCV genotype 4a, variant P58L, EC50 relative to WT) was 197 and the EC50 [9, 12] was 3 ± 0.09 nM. The Fold change ([10]; HCV genotype 5a, variant L31F, EC50 relative to WT) was 76, the EC50 [10, 12] was 6.1 ± 0.8 nM and the Fold change (HCV 6a NS5A WT replicon; HCV genotype 6a, WT, EC50 relative to WT) was 1. The EC50 (HCV 6a NS5A WT replicon; [12]) was 0.2 ± 0.04 nM, the EC50 [11] was 0.01 nM and the “cytotoxicity at the highest test concentration” value (MDCK cells) was “significant cytotoxicity”. For the same compound, the CC50 (in vitro) was over 10000 nM.
